Assays:
Aphidius rhopalosiphi = test: LR50; higher = less toxic; details: not reported; mortality
Folsomia candida = details: chronic/long-term; duration: 28 days
Bibionidae = details: chronic/long-term; duration: 28 days; reproduction
Tagia sp. = details: acute; duration: 14 days; mortality
Daphnia magna = details: chronic/long-term; duration: 21 days; reproduction
Pimephales promelas = details: chronic/long-term; duration: 28 days; growth
Apis mellifera = details: acute; oral; unspecified; mortality
Oryctolagus sp. = details: reproduction developmental; food consumption
Canidae = details: chronic; duration: 1 years; oral; Dog Other; clinical chemistry

O=C(Cc1ccccc1)N/C(=N\OCC1CC1)c1c(C(F)(F)F)ccc(F)c1F [Cyflufenamid] gave an LR50 (Aphidius rhopalosiphi) of 50 g/ha, an NOEC (Folsomia candida) of over 0.0178 mg/kg and an NOEC (Bibionidae) of 1 mg/L. For the same compound, the LC50 (Tagia sp.) was over 500 mg/kg, the NOEC (Daphnia magna) was 0.0406 mg/L and the NOEC (Pimephales promelas) was 0.024 mg/L. The LD50 (Apis mellifera) was over 100 µg/piece, the NOAEL (Oryctolagus sp.) was 5 mg/kg-day and the LC50 (Colinus virginianus; acute, oral, diet, mortality) was over 743 mg/kg-day. It also gave an LD50 (Colinus virginianus; acute, oral, mortality) of over 2000 mg/kg-day, an NOEC (Colinus virginianus; reproduction developmental) of 98 mg/kg-day and an LD50 (Rattus norvegicus; acute, oral, mortality) of over 5000 mg/kg-day. It also gave an NOAEL (Rattus norvegicus; chronic, duration: 2 years, F, histopathology: nonneoplastic) of 4.4 mg/kg-day, an NOAEL (Rattus norvegicus; chronic, duration: 2 years, M, histopathology: nonneoplastic) of 4.4 mg/kg-day and an NOEC (Rattus norvegicus; reproduction developmental, mortality) of 800 mg/kg-day. The NOAEL (Rattus norvegicus; reproduction developmental, reproduction) was 57 mg/kg-day and the NOAEL (Canidae) was 4.1 mg/kg-day.

Source: EPA's ToxValDB 9.5 (doi:10.2903/j.efsa.2009.258r)
